Test results reported in publication PMC5908784, “Extracellular loops 2 and 3 of the calcitonin receptor selectively modify agonist binding and efficacy” (Biochemical Pharmacology, 2018).
Changes are numbered by the printed parent chain. Where a SMILES comes first, the peptide text is derived from it. Bridges are numbered along the chain shown (N, C = ends).

Tests used:
Test in all cases: Heterologous whole cell competition binding
Settings in all cases: heterologous competition of 125I-sCT(8-32), whole cells, mean ± S.E.M., SEM
hCTR K366A = molecular target: T1, hCTR K366A (Homo sapiens, UniProt P30988, K366A)
T1 construct: c-Myc (N); expressed in transfected cells
T1 sequence (P30988 25-474 K366A): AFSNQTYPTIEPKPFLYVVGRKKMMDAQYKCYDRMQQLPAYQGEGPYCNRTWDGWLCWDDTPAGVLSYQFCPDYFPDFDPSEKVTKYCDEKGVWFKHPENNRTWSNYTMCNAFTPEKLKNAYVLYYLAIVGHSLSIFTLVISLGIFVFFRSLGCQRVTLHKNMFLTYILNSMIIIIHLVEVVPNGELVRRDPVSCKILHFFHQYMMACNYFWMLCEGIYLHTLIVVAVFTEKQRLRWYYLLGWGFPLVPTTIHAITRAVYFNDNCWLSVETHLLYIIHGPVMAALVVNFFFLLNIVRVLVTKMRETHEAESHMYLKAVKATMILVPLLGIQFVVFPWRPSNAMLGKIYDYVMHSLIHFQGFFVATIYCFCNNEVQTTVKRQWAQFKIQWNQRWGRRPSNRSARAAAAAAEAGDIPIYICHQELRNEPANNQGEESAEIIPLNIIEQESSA
Summary of the method: (§1)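 Whole cells expressing each receptor mutant were incubated overnight with radioligand and competitor, after which unbound ligand was removed and bound radioactivity counted on a gamma counter. Inhibition values were corrected for radioligand occupancy by the Cheng-Prusoff equation and reported as pKi.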

hCTR P363A = molecular target: T2, hCTR P363A (Homo sapiens, UniProt P30988, P363A)
T2 construct: expressed in transfected cells
T2 sequence (P30988 25-474 P363A): T1 sequence (P30988 25-474 K366A) with P339A, A342K
Summary of the method: as §1

hCTR G369A = molecular target: T3, hCTR G369A (Homo sapiens, UniProt P30988, G369A)
T3 construct: c-Myc (N); expressed in transfected cells
T3 sequence (P30988 25-474 G369A): T1 sequence (P30988 25-474 K366A) with A342K, G345A
Summary of the method: as §1

hCTR R281A = molecular target: T4, hCTR R281A (Homo sapiens, UniProt P30988, R281A)
T4 construct: expressed in transfected cells
T4 sequence (P30988 25-474 R281A): T1 sequence (P30988 25-474 K366A) with R257A, A342K
Summary of the method: as §1

hCTR F356A = molecular target: T5, hCTR F356A (Homo sapiens, UniProt P30988, F356A)
T5 construct: c-Myc (N); expressed in transfected cells
T5 sequence (P30988 25-474 F356A): T1 sequence (P30988 25-474 K366A) with F332A, A342K
Summary of the method: as §1

Ki (hCTR K366A): 11 nM
Ki (hCTR P363A): 55 nM
Ki (hCTR G369A): 7.94 nM
Ki (hCTR R281A): 66.1 nM
Ki (hCTR F356A): 12 nM
Structure (SMILES): CSCC[C@H](NC(=O)CNC(=O)[C@H](CO)NC(=O)[C@H](Cc1ccccc1)NC(=O)[C@H](CCCNC(=N)N)NC(=O)[C@H](Cc1c[nH]cn1)NC(=O)[C@H](Cc1ccccc1)NC(=O)[C@H](CC(N)=O)NC(=O)[C@H](CC(N)=O)NC(=O)[C@H](CC(C)C)NC(=O)[C@H](CC(N)=O)NC(=O)[C@H](CCCNC(=N)N)NC(=O)[C@H](Cc1c[nH]c2ccccc12)NC(=O)[C@H](Cc1ccc(O)cc1)NC(=O)[C@H](C)NC(=O)[C@H](CO)NC(=O)[C@H](CC(C)C)NC(=O)[C@@H](NC(=O)[C@@H]1CSSC[C@H](N)C(=O)N[C@@H](CO)C(=O)N[C@@H](CC(N)=O)C(=O)N[C@@H](CC(C)C)C(=O)N[C@@H](CO)C(=O)N[C@@H]([C@@H](C)O)C(=O)N1)C(C)C)C(=O)NCC(=O)N[C@@H](Cc1ccccc1)C(=O)NCC(=O)N1CCC[C@H]1C(=O)N[C@@H](CCC(=O)O)C(=O)N[C@H](C(=O)N1CCC[C@H]1C(N)=O)[C@@H](C)O [pCT] (H-CSNLSTCVLSAYWRNLNNFHRFSGMGFGPETP-NH2; disulfide 1-7)
